From publication PMC11744668, “2-Cyanopyrimidine-Containing Molecules for N-Terminal Selective Cyclization of Phage-Displayed Peptides” (ACS Chemical Biology, 2025)
“Also recorded” adds a separate entry of the source.

Assays:
CA5C-sfGFP = assay: Cyclization of CA5C-sfGFP with linkers (LC-ESI-MS); conditions: 100 μM linker, PBS pH 7.4, 1 mM TCEP; for cyclization of CA5C-sfGFP: 3 h, 22 °C (RT), 500 nM protein; for cyclization of CA5C-sfGFP, optimized (in words): 16 h
Protocol: The designed organic linkers were tested for their ability to cyclize a CA5C peptide expressed as an N-terminal fusion to sfGFP (CA5C-sfGFP). Following reduction of the protein with 1 mM TCEP for 30 min, 100 μM compounds were reacted with the reduced CA5C-sfGFP for 3 h in PBS (pH 7.4). Following the reaction, the protein was analyzed via electrospray ionization mass spectrometry (ESI-MS) analysis to determine the desired adduct and any potential side reactions that occurred. […] This is likely due to the electron withdrawing effects of the nitrogen atoms adjacent to the nitrile in the 2-cyanopyrimidine derivatives. […] Following previously established Bayesian deconvolution of the mass spectra,[23] protein masses from each reaction (MW = 28,399 Da) corresponded well with that of the expected cyclic product (MW = 28,399 Da). […] This observed mass matches a TCEP-conjugated product resulting from a previously reported competing phospha-Michael addition of TCEP to the acrylamide moiety.[24] This product has a TCEP-functionalized linker that is nonreactive toward the internal cysteine (Figure 2A,B). Following these initial studies, we then further optimized the cyclization of CA5C-sfGFP using pCAmCP and mCAmCP by varying the reaction time, temperature, and concentration of linkers (Figure 2C).
Purified CA5C-sfGFP was diluted to 500 nM in PBS (pH 7.4) containing 1 mM TCEP and left to incubate for 30 min at 37 °C. Linker (100 μM final concentration) or equivalent amounts of DMSO were then added to the solution, and it reacted at varying times (3 or 16 h) and temperatures (22 or 37 °C). All initial tests for reactivity were performed at 22 °C for 3 h, while linkers pCAmCP and mCAmCP were optimized with the additional conditions. The reaction mixtures were then concentrated and exchanged to ammonium bicarbonate (50 mM, pH 8.0) using an Amicon centrifugal filter (MWCO: 10 kDa). Samples were analyzed using a QExactive Orbitrap LC–MS System (Thermo Fisher) and deconvoluted using UniDec software.[23]

[1] = Specificity of linker reaction with BCP peptide (nucleophilic residues, no internal cysteine); conditions: 500 µM BCP, 550 µM linker, 50 mM NH4HCO3, 1.2 mM TCEP, pH 7.5, 4 h
From the text: While pCAmCP and mCAmCP gave efficient cyclization of the peptide fusion of sfGFP, we looked to further investigate the specificity of the reaction using peptide kinetic assays. To do this, we first established reactivity of the compounds with a model peptide (CGK-5, Figures 3A and S16) that was composed of two cysteines flanking a region tuned for solubility in buffer (GGKGG) and with a tryptophan residue on the C-terminus for UV absorbance. […] To test the specificity of the reaction for the N-terminal cysteine, we synthesized a peptide analogue (CGK-5Abu, Figures 3D–F and S17) that contained 2-aminobutyric acid in place of the N-terminal cysteine. […] Since these reactions occurred at 500 μM of peptide to allow for analysis on the HPLC, we envision this difference will likely be exaggerated when using lower peptide/protein concentrations. Although it is unlikely at neutral pH, the chloroacetamide moiety can possibly react with nucleophilic amino acids other than cysteine. To defuse this concern, we designed a peptide containing a variety of possibly nucleophilic residues (serine, arginine, tyrosine, histidine, and lysine, but not an internal cysteine) adjacent to the N-terminal cysteine (BCP, Figure S18) and let the peptide react with pCAmCP or mCAmCP. […]

[2] = test system: phages (12mer phagemid library); assay: Phage infectivity (toxicity) assay, colony-forming unit assay; conditions: 50–200 μM linker, 22 or 37 °C, 3 or 24 h, 1 mM TCEP; cfu assay, n = 3
Protocol: For all experiments, phages were quantified via a colony-forming unit assay. In this assay, serial dilutions of the phage solution were prepared in 2× YT media, and 10 μL of each dilution was added to 90 μL of log-phase E. coli ER2738. Following the addition of the phage dilutions, the culture was incubated at 37 °C for 45 min, and then 10 μL was spotted in triplicate onto agar selection plates containing either 100 μg/mL ampicillin and 10 μg/mL tetracycline, which were incubated at 37 °C overnight. The following day, colonies in each spot were counted, and this number was used to calculate the number of colony-forming units in the solution.
The purified 12mer phagemid library in binding buffer was incubated with 1 mM TCEP at 37 °C for 30 min. The reduced phages were then reacted with linkers (pCAmCP or mCAmCP) or DMSO equivalents at varying concentrations (50, 100, and 200 μM) and temperatures (22 or 37 °C) for varying times (3 or 24 h). Following incubation under the various conditions, the phage solutions were then titered by using the previously described colony-forming unit assay.

Row | Compound | cyclization of CA5C-sfGFP (CA5C-sfGFP) [%] | cyclization of CA5C-sfGFP, optimized (in words) (CA5C-sfGFP) | specificity of chloroacetamide toward nucleophilic residues other than cysteine (in words) [1] | phage toxicity (in words) [2]
1 | N#Cc1nccc(NC(=O)CCl)n1 [mCAmCP, 2-chloro-N-(2-cyanopyrimidin-4-yl)acetamide] | ~70 | nearly complete cyclization of CA5C-sfGFP with no significant side reactions observed | the chloroacetamide was left intact, with the only observed side reaction being the addition of TCEP to the chloroacetamide | No toxicity was observed under any of the conditions tested; also recorded: without hindering infection
2 | N#Cc1ncc(NC(=O)CCl)cn1 [pCAmCP, 2-chloro-N-(2-cyanopyrimidin-5-yl)acetamide] | 50 | nearly complete cyclization of CA5C-sfGFP with no significant side reactions observed | the chloroacetamide was left intact, with the only observed side reaction being the addition of TCEP to the chloroacetamide | No toxicity was observed under any of the conditions tested; also recorded: without hindering infection
